The values below come from patent US8609151B2, “Treatment of erectile dysfunction and libido enhancement” (CSIR, priority 2006, dated 2013).

In general, inhibition refers to the change of the read-out against control, counted positive when it falls. The term IC50 denotes the concentration needed to halve the response being measured.

The target of series [1] is T1, Phosphodiesterase 5 enzyme, partially purified from human platelets (Homo sapiens, UniProt O76074).
T1 construct: Phosphodiesterase 5 enzyme, partially purified from human platelets, was used; tissue MDS Pharma Laboratory in Taiwan (assay performed there); host or cells: human platelets
The experiment in a line: in vitro inhibition of the phosphodiesterase 5 enzyme (MDS Pharma). It is filed as biochemical. How it is done:
Inhibition of the phosphodiesterase 5 enzyme limits the hydrolysis of cyclic Guanisine MonoPhosphate (cGMP) to acyclic Guanisine MonoPhosphate (5′GMP) and thereby increases the intracellular concentrations of cGMP which results in the relaxation of the corpus cavernosum smooth muscle. When this muscle is relaxed blood flows and fills the arteries causing the penis to erect.
The assay of the inhibition of the phosphodiesterase 5 enzyme was carried out by the MDS Pharma Laboratory in Taiwan. Phosphodiesterase 5 enzyme, partially purified from human platelets, was used. Test compounds and/or vehicles were incubated with 3.5 μg enzyme and 1 μM cGMP containing 0.01 μM [^3H]cGMP in Tris buffer at pH 7.5 for 20 minutes at 30° C. The reaction was terminated by boiling for 2 minutes and the resulting GMP was converted to guanosine by addition of 10 mg/ml snake venom nucleotidase and further incubation at 30° C. for 10 minutes. Unhydrolyzed cGMP was bound to AG1-X2 resin, and remaining [^3H]guanosine in the aqueous phase was quantitated by scintillation counting. […] Since enzyme activity could change from lot to lot, the concentration used was adjusted if necessary.

The test system of a further series is rabbit corpus cavernosum. The experiment in a line: rabbit corpus cavernosum relaxation/contraction, phenylephrine-contracted strip (MDS Pharma). It is filed as cell-based. To be noted: for Smooth Muscle relaxation (%) at 30 μM: relative to 0.3 μM sodium nitroprusside response, significant at ≧50%; for rabbit corpus cavernosum smooth muscle relaxation: isolated compounds at test concentration. How it is done: Rabbit corpus cavernosum relaxation/contraction was measured by the MDS Pharma Laboratory. Corpus cavernosum obtained from New Zealand-derived albino male rabbits weighing 2.5-3 kg and sacrificed by CO2 overexposure was used. A strip from the basal area of the corpus cavernosal was removed and placed under 2 g tension in a 10 ml bath containing Krebs solution at pH 7.4 at 32° C. and sub-maximal isometrically recorded tonic contraction was induced by phenylephrine (3 μM).

The subject of series [2] is Chinese hamster ovarian cells (CHO). The experiment in a line: in vitro cytotoxicity, MTT assay. To be noted: for IC50: Cricetulus griseus; for cytotoxicity against Chinese hamster ovarian cells: at the test concentrations. As for the experimental part: In vitro cytotoxicity against mammalian cell line was assayed against Chinese hamster ovarian cells by the Assay Laboratory of the Department of Medicine, Division of Pharmacology, University of Cape Town, South Africa.
All samples were tested in triplicate on a single occasion. The MTT-assay was used as a calorimetric assay for cellular growth and survival, and compares well with other available assays (Mosman, Journal of Immunological Methods 65, 55-63 (1983) and Rubinstein et al., Journal of the National Cancer Institute 82, 1113-8 (1990)). The tetrazolium salt MTT was used to measure all growth and chemosensitivity.
Aqueous samples were dissolved in water and organic samples were dissolved in a methanol:water mixture (1:9) by volume. The initial concentration of stock solutions was 2 mg/ml for all samples. Samples were stored at −20° C. until use. […] Emetine was used as the positive control in all experiments. The initial concentration of emetine was 100 μg/ml, which was serially diluted in complete medium with 10-fold dilutions to give 6 concentrations, the lowest being 0.001 μg/ml. The same dilution technique was applied to all other samples with an initial concentration of 100 μg/ml to give 5 concentrations, with the lowest concentration being 0.01 μg/ml.
The 50% inhibitory concentration (IC50) values for these samples were obtained from dose-response curves, using a non-linear dose-response curve fitting analyses via GraphPad Prism v.2.01 software.
(Tetrazolium assays rely on reduction of a dye to a coloured formazan, in cell work by metabolically active cells.)

Series [3] relates to rabbit corpus cavernosal smooth muscle. Nature of the series: relaxation of CaCl2 pre-contracted rabbit corpus cavernosal smooth muscle strips (University of Pretoria). It is filed as cell-based. As for the experimental part: Strips (12 mm long and 1-2 mm thick) of rabbit corpus cavernosal smooth muscle were dissected and mounted in an organ-bath chamber containing Krebs-PSS solution with the following composition: […] One end of the muscle was tied to the inside bottom of the perfusion bath and the other end to a thin wire connected to a Harvard isotonic force transducer for isotonic tension measurements. Changes in isotonic tension were recorded on a computerized calibrating program. […] This was followed by perfusion with 2 ml of high CaCl2 in Krebs-PSS (17.8 mg/ml) for muscle contraction. Base-line tension was set at the point of maximal contraction following the addition of CaCl2 into the experimental bath. The extracts to be analyzed were added after a stable contraction base-line. The same procedure was repeated for the positive control, Sildenafil. The contraction/relaxation was reported relative to Sildenafil tested at 78 ng/ml.

The mark [4] stands for this setting: read-out: Phosphodiesterase 5 enzyme inhibition (%) at 10 μM, 10 μM, significant at ≧50%.
Setting [5] is: read-out: Chinese hamster ovarian cell test IC50, MTT assay, triplicate, values ≦1.0 considered cytotoxic.

Values after ≈ are worked out from the molar mass of the structure shown. “Also recorded” adds a separate entry of the source. Read-outs that look alike come from different tables or passages of the source.

Regarding `COc1ccc(CC2COC(=O)/C2=C\c2ccc3c(c2)OCO3)cc1OC` (stereo not drawn) [Compound 6, 3-(1′,3′-benzodioxol-5′-ylmethylene)-4-(3″,4″-dimethoxybenzyl)dihydrofuran-2(5H)-one], the inhibition at 10 µM in series [1] (setting [4]) is 35%. In addition, in the series with rabbit corpus cavernosum, the “Smooth Muscle relaxation (%) at 30 μM” value was 71%. In series [2] (setting [5]), the IC50 was greater than 100 µg/mL. Besides, in series [2], the “cytotoxicity against Chinese hamster ovarian cells” value (shortened to “cytotoxicity”) was “non-cytotoxic; also recorded: least toxic”.

Turning to `CCCc1nn(C)c2c(=O)[nH]c(-c3cc(S(=O)(=O)N4CCN(C)CC4)ccc3OCC)nc12` [Viagra], in series [3] (at […] 10^−2 μg/ml, footnote of Table 14, same figure as the Table 13 footnote), the relaxation amounted to 100%. Besides, the smooth muscle relaxation entry in series [3] (at […] 10^−5 mg/ml, positive control) is listed as “Viagra showed 100% smooth muscle relaxation at 1.8 × 10^−5 mg/ml”.

Turning to `CC[C@H]1CN2CCc3cc(OC)c(OC)cc3[C@@H]2C[C@@H]1C[C@H]1NCCc2cc(OC)c(OC)cc21` [Emetine, reference compound], in series [2] (setting [5]), the IC50 was found to be 0.04 µg/mL (≈ 0.0832 µM).

As to `COc1ccc(-c2c3c(c(O)c4cc5c(cc24)OCO5)COC3=O)cc1OC` [Compound 5, 9-(3′,4′-dimethoxyphenyl)-4-hydroxy-6,7-methylenedioxynaphtho[2,3-c]furan-1(3H)-one], in series [1] (setting [4]), the inhibition at 10 µM was 29%. In addition, in the series with rabbit corpus cavernosum, the “Smooth Muscle relaxation (%) at 30 μM” value was 75% and the “rabbit corpus cavernosum smooth muscle relaxation” value is listed as “observed”. In addition, in series [2] (setting [5]), the IC50 was determined as 28.5 µg/mL (≈ 74.9 µM). The “cytotoxicity” value in series [2] is listed as “non-cytotoxic”.

`COc1ccc(-c2c3c(c(OC)c4cc5c(cc24)OCO5)C(=O)OC3)cc1OC` [Compound 7, 4-(3′,4′-dimethoxyphenyl)-9-methoxy-6,7-methylenedioxynaphtho[2,3-c]furan-1(3H)-one]: in series [1] (10 μM, significant at ≧50%), the “Phosphodiesterase 5 enzyme inhibition (%) at 10 μM” value amounted to 53%. In series [1] (isolated compounds at test concentration), the “phosphodiesterase 5 enzyme inhibition” value was “Significant inhibition”. In the series on rabbit corpus cavernosum, the “Smooth Muscle relaxation (%) at 30 μM” value is listed as 57% and the “rabbit corpus cavernosum smooth muscle relaxation” value is recorded as “observed”. Moreover, the “Chinese hamster ovarian cell test IC50” value in series [2] (MTT assay, triplicate, values ≦1.0 considered cytotoxic) was greater than 100 µg/mL. The “cytotoxicity” value in series [2] is reported as “non-cytotoxic; also recorded: least toxic”.

Regarding `COc1cc2c(-c3ccc4c(c3)OCO4)c3c(c(OC)c2c(OC)c1OC)COC3=O` [Compound 3, 9-(1′,3′-benzodioxol-5′-yl)-4,5,6,7-tetramethoxynaphtho[2,3-c]furan-1(3H)-one], the inhibition at 10 µM in series [1] (read-out: Phosphodiesterase 5 enzyme inhibition (%) at 10 μM) is 11%. Moreover, the “Smooth Muscle relaxation (%) at 30 μM” value with rabbit corpus cavernosum was 62%. In addition, the IC50 in series [2] (read-out: Chinese hamster ovarian cell test IC50) is 9 µg/mL (≈ 21.2 µM).
